The nature of series [1]: inhibitors of firefly luciferase expression or activity, dose response, H4 neuroglioma cells, luminescence (AID 1990). The series is classed as functional, cell-based.
Series [2] in a line: Luminescence Cell-Based Dose Response HTS to Identify Inhibitors of 5'UTR Stem-Loop Driven Prion Protein mRNA Translation in H4 Neuroglioblastoma Cells. [Related pubchem assays: 1827 (Project Summary), 1813 (Primary HTS)]. The class given is functional.
The nature of series [3]: inhibitors of SNCA 5'UTR-driven reporter translation, confirmation, H4 neuroglioma cells, luminescence (AID 1988). The class given is functional, cell-based.
Series [4] is described as follows: Luminescence Cell-Based Dose Retest to Confirm Inhibitors of Cancer Stem Cells. [Related pubchem assays (depositor defined):AID2717, AID2721]. The series is classed as functional. The following applies: Homo sapiens.
In the next series the target is Nonstructural protein 1 (Influenza A virus, UniProt Q194T2). The class given is functional, Influenza A virus (A/California/07/2009(H1N1)).
Nonstructural protein 1, sequence (Q194T2 whole entry): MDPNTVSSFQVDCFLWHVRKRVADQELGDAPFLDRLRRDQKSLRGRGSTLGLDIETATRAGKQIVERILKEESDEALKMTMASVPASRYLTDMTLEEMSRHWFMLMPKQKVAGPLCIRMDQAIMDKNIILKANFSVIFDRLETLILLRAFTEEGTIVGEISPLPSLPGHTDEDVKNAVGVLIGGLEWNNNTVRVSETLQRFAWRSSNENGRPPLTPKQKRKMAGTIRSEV
A further series has as its system INS1. Description: beta cell apoptosis inhibitors, cytokine rescue, dose response, luminescence, retest (AID 449756).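 Note: cell death triggered by IL-1 beta plus TNF-alpha plus IFN-gamma mixture; protective hits raise ATP signal compared with cytokine alone wells.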 The series is classed as functional, cell-based. The following applies: Rattus norvegicus.
Series [5] in a line: Shn3 3'UTR reporter inhibitors, dose response, cell-based, Clone20 osteoblasts, firefly luciferase, cherry-picked (AID 624132).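 Note: firefly luciferase luminescence from reporter carrying the Shn3 3'UTR in osteoblasts.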 The series is classed as functional.
A short description of series [6]: HepG2 cell cytotoxicity, dose response, cytotoxicity control for Shn3 inhibitor project, CellTiter-Glo, cherry-picked (AID 624134). The class given is functional, cell-based. Background: ATP-based viability assays read luminescence as a measure of living cells.
The nature of series [7]: control 3'UTR Renilla luciferase suppression, dose response, counter-screen for Shn3 inhibitor project, cell-based, Clone20-Shn3RL, cherry-picked (AID 624133). The series is classed as functional. On the technique in general: The purpose of a counterscreen is to sort out artefacts and off-target activity.
Series [8] deals with T1, RNA-binding protein pos-1 (Caenorhabditis elegans, UniProt G5EF15).
T1 sequence (G5EF15 whole entry): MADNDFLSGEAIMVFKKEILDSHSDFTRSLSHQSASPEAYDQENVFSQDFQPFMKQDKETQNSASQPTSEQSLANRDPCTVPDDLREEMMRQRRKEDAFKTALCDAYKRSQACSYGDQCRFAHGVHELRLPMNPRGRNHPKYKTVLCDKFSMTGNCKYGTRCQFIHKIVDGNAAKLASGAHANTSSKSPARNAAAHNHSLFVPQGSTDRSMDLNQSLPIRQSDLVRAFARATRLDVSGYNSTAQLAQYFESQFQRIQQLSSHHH
Description: inhibitors of POS-1/mex-3 RNA binding, dose response, biochemical, fluorescence polarization (AID 1964).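 Note: purified POS-1 fused to maltose binding protein made in E. coli; potency of compounds blocking POS-1 binding to fluorescent RNA.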 In general terms: In fluorescence polarisation assays a small probe gives low polarisation when free and higher when bound to something large.

Series [9] deals with T2, Zinc finger protein mex-5 (Caenorhabditis elegans, UniProt Q9XUB2).
T2 sequence (Q9XUB2 whole entry): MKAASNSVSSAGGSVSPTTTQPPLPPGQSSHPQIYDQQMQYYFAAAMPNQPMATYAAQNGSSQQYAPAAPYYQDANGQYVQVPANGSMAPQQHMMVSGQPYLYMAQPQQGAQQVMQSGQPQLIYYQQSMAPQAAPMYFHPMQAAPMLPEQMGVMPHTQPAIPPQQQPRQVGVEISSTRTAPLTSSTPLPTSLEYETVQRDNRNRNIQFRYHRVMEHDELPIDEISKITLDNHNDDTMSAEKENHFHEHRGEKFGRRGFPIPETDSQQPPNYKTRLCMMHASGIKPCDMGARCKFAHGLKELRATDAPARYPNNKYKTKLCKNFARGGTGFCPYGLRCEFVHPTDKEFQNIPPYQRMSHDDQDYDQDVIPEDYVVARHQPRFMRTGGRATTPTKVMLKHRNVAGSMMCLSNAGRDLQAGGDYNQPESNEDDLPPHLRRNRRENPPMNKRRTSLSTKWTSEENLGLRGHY
Description: MEX-5/TCR-2 RNA interaction inhibitors, dose response, biochemical, C. elegans, fluorescence polarization (AID 1960).

Series [10] is described as follows: microbe, parasite or virus in culture. The series is classed as functional. The settings on record: Mycobacterium tuberculosis.
Series [11] in a line: growth suppression of PTEN-null colon cells, dose response, cell-based, HCT116 PTEN knockout (AID 1047).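 Note: HCT116 colon tumor cells with PTEN knocked out; cells exposed to compound for 60 hours before readout; potency for loss of cell viability measured by luminescence.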 The series is classed as functional.
Series [12] can be described thus: growth suppression of beta-catenin-knockout colon cells, dose response, cell-based, HCT116, human colon tumor (AID 1045).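 Note: HCT116 colon tumor cells with beta catenin knocked out; cells exposed to compound for 60 hours.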 The series is classed as functional.
The target in another series is Cytochrome P450 2C19 (Homo sapiens, UniProt P33261). Description: Cytochrome panel assay with activity outcomes. Panel member name: p450-cyp2c19 Compounds with AC50 equal or less than 10 uM are considered active. The series is classed as functional. The following applies: read-out: AC50.
Cytochrome P450 2C19, sequence (P33261 whole entry): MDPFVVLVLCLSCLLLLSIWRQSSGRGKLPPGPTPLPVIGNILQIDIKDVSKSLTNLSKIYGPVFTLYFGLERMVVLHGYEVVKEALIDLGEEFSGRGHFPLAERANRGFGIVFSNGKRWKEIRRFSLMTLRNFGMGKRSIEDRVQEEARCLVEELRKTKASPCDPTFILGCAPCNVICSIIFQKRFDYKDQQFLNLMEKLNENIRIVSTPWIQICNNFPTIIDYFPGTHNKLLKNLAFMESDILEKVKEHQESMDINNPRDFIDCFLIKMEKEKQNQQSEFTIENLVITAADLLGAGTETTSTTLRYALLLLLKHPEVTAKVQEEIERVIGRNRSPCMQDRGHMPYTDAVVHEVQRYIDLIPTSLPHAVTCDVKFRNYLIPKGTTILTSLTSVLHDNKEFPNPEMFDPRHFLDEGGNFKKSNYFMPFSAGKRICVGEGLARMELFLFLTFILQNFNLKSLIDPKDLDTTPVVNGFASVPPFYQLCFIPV
In a further series the target is Cytochrome P450 2C9 (Homo sapiens, UniProt P11712).
Cytochrome P450 2C9, sequence (P11712 whole entry): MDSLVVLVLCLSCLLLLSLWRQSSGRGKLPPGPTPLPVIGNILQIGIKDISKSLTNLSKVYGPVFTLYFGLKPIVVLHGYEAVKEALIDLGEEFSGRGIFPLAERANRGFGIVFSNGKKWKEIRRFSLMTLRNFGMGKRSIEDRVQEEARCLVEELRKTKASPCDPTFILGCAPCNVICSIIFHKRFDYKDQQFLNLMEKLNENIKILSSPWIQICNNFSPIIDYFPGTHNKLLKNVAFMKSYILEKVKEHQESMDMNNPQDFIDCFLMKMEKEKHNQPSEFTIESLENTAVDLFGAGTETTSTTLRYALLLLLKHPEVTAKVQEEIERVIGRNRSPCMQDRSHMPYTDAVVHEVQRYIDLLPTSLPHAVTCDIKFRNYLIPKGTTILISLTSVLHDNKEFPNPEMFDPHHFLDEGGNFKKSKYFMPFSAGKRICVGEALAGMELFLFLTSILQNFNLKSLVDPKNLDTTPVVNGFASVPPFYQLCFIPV
For series [13], the target named is T3, Replicative DNA helicase DnaB (Mycobacterium tuberculosis, UniProt P9WMR3).
T3 sequence (P9WMR3 whole entry): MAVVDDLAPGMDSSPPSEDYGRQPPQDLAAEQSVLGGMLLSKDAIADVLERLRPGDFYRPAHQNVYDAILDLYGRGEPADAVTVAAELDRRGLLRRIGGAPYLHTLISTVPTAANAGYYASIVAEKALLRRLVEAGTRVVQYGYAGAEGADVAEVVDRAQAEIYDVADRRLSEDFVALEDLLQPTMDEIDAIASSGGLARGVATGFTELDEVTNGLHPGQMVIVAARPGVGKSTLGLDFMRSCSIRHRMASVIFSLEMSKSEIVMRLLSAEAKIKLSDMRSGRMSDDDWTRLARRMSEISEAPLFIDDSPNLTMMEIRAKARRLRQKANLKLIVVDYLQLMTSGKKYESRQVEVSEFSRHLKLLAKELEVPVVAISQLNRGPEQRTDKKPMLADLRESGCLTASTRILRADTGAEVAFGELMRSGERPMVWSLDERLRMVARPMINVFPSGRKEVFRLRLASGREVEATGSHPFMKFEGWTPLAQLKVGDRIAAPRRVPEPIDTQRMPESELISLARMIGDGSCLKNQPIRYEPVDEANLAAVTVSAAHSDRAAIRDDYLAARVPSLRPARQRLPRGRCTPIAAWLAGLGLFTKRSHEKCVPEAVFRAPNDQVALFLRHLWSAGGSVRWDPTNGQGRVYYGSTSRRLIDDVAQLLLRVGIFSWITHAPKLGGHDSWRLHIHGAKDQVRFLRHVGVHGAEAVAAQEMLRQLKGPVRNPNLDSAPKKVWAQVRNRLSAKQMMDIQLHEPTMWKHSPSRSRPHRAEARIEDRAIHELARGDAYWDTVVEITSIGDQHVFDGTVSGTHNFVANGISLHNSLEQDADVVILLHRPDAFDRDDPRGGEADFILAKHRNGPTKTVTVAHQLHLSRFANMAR
Description: DnaB intein splicing inhibitors, dose response, biochemical, cell-free fluorescence (AID 449749). The class given is functional.

A further series concerns the target T4, Protein RecA (Mycobacterium tuberculosis, UniProt P9WHJ3).
T4 sequence (P9WHJ3 whole entry): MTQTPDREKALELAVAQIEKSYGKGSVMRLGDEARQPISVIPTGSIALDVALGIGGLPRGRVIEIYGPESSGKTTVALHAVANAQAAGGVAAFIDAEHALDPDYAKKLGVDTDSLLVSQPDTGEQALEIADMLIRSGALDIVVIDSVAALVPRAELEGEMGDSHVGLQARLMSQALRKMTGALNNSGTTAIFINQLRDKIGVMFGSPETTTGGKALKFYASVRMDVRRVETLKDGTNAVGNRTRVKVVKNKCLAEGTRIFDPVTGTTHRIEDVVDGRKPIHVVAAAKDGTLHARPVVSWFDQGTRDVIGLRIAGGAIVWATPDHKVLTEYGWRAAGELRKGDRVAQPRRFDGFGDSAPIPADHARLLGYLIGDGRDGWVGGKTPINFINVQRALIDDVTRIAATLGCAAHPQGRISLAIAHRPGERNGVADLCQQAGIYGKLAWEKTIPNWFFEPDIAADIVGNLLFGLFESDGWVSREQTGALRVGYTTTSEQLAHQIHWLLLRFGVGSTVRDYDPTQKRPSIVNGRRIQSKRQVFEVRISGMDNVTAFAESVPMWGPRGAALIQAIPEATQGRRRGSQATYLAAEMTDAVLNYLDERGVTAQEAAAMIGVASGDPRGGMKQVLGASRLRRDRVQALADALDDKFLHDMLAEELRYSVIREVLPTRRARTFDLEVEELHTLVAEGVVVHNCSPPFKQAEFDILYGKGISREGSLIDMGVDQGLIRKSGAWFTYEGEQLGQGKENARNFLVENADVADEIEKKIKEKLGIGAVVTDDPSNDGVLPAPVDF
Description: Fluorescence Cell-Free Homogeneous Dose Retest to Identify Inhibitors of RecA-Intein Splicing Activity. [Related pubchem assays (depositor defined):AID2097, AID2223, AID489010, AID492950]. The series is classed as functional.

Series [14] is described as follows: Luminescence Cell-Based Dose Response HTS to Identify Activators of Luciferase Translation or Activity in H4 […] Cells. [Related pubchem assays: 1829 (Project Summary), 1814 (Primary HTS)]. The series is classed as functional.
In a further series the test system is H4. Description: Luminescence Cell-Based Dose Response HTS to Identify Activators of 5'UTR Stem-Loop Driven Prion Protein mRNA Translation in H4 Neuroglioblastoma Cells. [Related pubchem assays: 1829 (Project Summary), 1814 (Primary HTS)]. The following applies: Homo sapiens. The series is classed as functional.

The EC50 is the concentration needed to bring the measured effect to its halfway point. One may read the AC50 as the concentration at which the activity in the assay is half-maximal. A word on the IC50: it is the concentration needed to halve the response being measured.

SMILES strings stand for the structures. The source made the active and inactive calls. A value given as a limit tells only on which side of the number the result lay.

Regarding `COc1ccccc1C(CCNCc1ccc(N(C)C)cc1)c1ccc(OC(C)C)cc1` (configuration not stated), the values for the 50% effective concentration (EC50) in [1], in [2] and in series [3] were > 60 µM (not active), > 120 µM (not active) and 7.66 µM (active), respectively. Moreover, the AC50 in series [4] is 5.31 µM (active); in the series with INS1, 7.11 µM (active); in series [5] it was 6.48 µM (active); in [6] it was 12.5 µM (active); in series [7], 12 µM (active). For the same compound, on Nonstructural protein 1, the IC50 is 8.29 µM (active).

As to `Cc1ccc(-n2nc(C)c(/C=N/NC(=O)c3ccc(O)cc3O)c2O)cc1`, the concentration for a half-maximal effect (EC50) in series [8] was 76.9 µM (active); in series [9], 22 µM (active). The IC50 on Nonstructural protein 1 is 4.44 µM (active).

`COc1ccc(Cc2nnc(N/N=C/c3ccccc3O)nc2O)cc1OC`: the AC50 was 3.66 µM (active) in [4] and 0.834 µM (active) with INS1. For the same compound, the IC50 at Nonstructural protein 1 is 1.42 µM (active).

`COc1ccc(C2Oc3ccccc3C3=C2C(c2cccs2)n2ncnc2N3)cc1` (configuration not stated): the CC50 in [10] was 16.8 µM (active). The values for the EC50 in [11] and in series [12] were 8.88 µM (active) and 7.97 µM (active), respectively.

As for `COc1ccc(C2C(C#N)=C(N)OC3=C2C(=O)CC(C)(C)C3)cc1` (configuration not stated), the EC50 in series [8] is 69.7 µM (active); in [9], > 300 µM (not active).

For `CCOC(=O)N1CCN(C2=Nc3cccc4cccc2c34)CC1`, the EC50 in series [8] is > 300 µM (not active); in [9] it was 60.2 µM (active).

With `Cc1ccc(C(=O)NC(=S)Nc2ccc3c(c2)OCCO3)c(C)c1`, the half-maximal activity concentration (AC50) was 17.8 µM (inconclusive) on Cytochrome P450 2C19 and “inconclusive” on Cytochrome P450 2C9.

As for `N=c1c2c(-c3ccccc3)c(-c3ccccc3)n(Cc3ccco3)c2ncn1Cc1ccccc1`, the EC50 in [11] was 1.68 µM (active); in [12], 1.35 µM (active); at Protein RecA it was 6.7 µM (active). The AC50 in [13] was 3.08 µM (active); in the series with INS1 it was 6.08 µM (active).

On to `Cc1ccc(C)n1-c1ccc(C(=O)O)cc1`, for which the values for the EC50 in series [8] and in [9] were 13.9 µM (active) and 20.5 µM (inconclusive), respectively.

Turning to `O=C(Nc1nnc(SCc2c(Cl)cccc2Cl)s1)C1CCCO1` (configuration not stated), the AC50 on Cytochrome P450 2C19 is 14.1 µM (inconclusive); on Cytochrome P450 2C9, “inconclusive”.

`COc1ccc(-c2nc(C#N)c(NCc3ccco3)o2)cc1`: the EC50 is 31.9 µM (active) in series [14] and 7.92 µM (active) in the series with H4.

As to `COc1cc(/C=N/NC(=O)CN2CC(c3ccccc3)CC2=O)ccc1OC(=O)N(C)C` (configuration not stated), the AC50 is 22.4 µM (inconclusive) on Cytochrome P450 2C19 and “inconclusive” on Cytochrome P450 2C9.

For the compound `CC1=C/C(=N\Nc2ccccc2[N+](=O)[O-])CC(C)(C)C1`, on Nonstructural protein 1, the IC50 was 14.9 µM (active).

Take `COc1ccc(OC)c(N2C(=O)NC(=O)/C(=C\c3c[nH]c4ccccc34)C2=O)c1`: the EC50 in series [8] and in [9] was > 300 µM (not active) in each case.

With `CC(=O)c1ccc(Oc2ncnc3sccc23)cc1`, the half-maximal effective concentration (EC50) is 9.03 µM (active) in series [14] and 33.2 µM (active) with H4.

In the case of `CCCCCc1cc(=O)oc2c(C(CCN3CCCC3)c3ccc(N(C)C)cc3)c(OC)cc(OC)c12` (configuration not stated), the IC50 at Nonstructural protein 1 is 6.41 µM (active).

With `CCOc1ccccc1N/C=C(\C#N)c1nc2ccccc2n1C`, the EC50 (in series [14]; with H4) was > 120 µM (not active) in each case.

Take `COc1ccc(/C=C2\SC(=S)N(CCCC(=O)NC3CCCC3)C2=O)cc1OC`: the EC50 was 57.5 µM (active) in series [8] and 55.7 µM (inconclusive) in [9].

The record behind these values is ChEMBL document CHEMBL1201862, “PubChem BioAssay data set” (2004).
